Measured values: PMC6214108, “Synthesis and In Vitro Antitumor Activity of Novel Bivalent β-Carboline-3-carboxylic Acid Derivatives with DNA as a Potential Target” (International Journal of Molecular Sciences, 2018)

Tests used:
Type in all cases: cell-based
[1] = system: A549 (lung carcinoma) cell line; assay: MTT cytotoxicity assay, A549; conditions: Homo sapiens, 48 h, mean of three independent experiments, read-out: IC50 (μM) Mean ± SD, A549
Description: (§1) All cell lines (A549, SGC-7901, Hela, SMMC-7721, and MCF-7) were purchased from the American Type Culture Collection (Manassas, VA, USA), and were cultured in Dulbecco’s modified Eagle’s medium (DMEM, HycloneLaboratories Inc., Logan, Utah, USA) supplemented with 10% fetal bovine serum (FBS, Gibco&Invitrogen, Carlsbad, CA, USA) at 37 °C and 5% CO2.
(§2) The cytotoxic activities of β-carboline-3-carboxylic acid derivatives were investigated by the MTT method, as previously described. Cells (1 × 10^4 cells per well) seeded into 96-well plates (JET, Guangzhou, China) were incubated with DMEM containing various concentrations (2.5, 5, 10, 20, 40, and 80 μM) of β-carbolines (4A, 4B, 4C, 4D, 6a-6f, 6g-6l, 6m-6r, and 6s-6x) for 48 h at 37 °C and 5% CO2. Then, 10 µL of 5 mg/mL MTT reagent dissolved in PBS (Phosphate buffered saline) was added per well, and plates were incubated at 37 °C for 4 h. The medium was carefully removed and 100 µL dimethyl sulfoxide (DMSO) was added to dissolve the formazan crystals. The absorbance was measured at 490 nm with a microplate reader (ThermoFisher Scientific Inc., Waltham, MA, USA). The β-carbolines were dissolved in DMSO as stock solutions (10 mM) at −20 °C, and diluted in the final experimental solution using DMEM before use. A549 (lung carcinoma), SGC-7901 (gastric carcinoma), Hela (cervical carcinoma), SMMC-7721 (liver carcinoma), and MCF-7 (breast carcinoma) cell lines were used for the antitumor activity screening. The IC50 values were the mean values of three independent experiments.

[2] = system: SGC-7901 (gastric carcinoma) cell line; assay: MTT cytotoxicity assay, SGC-7901; conditions: Homo sapiens, 48 h, mean of three independent experiments, read-out: IC50 (μM) Mean ± SD, SGC-7901
Description: as §1, §2

[3] = system: Hela (cervical carcinoma) cell line; assay: MTT cytotoxicity assay, Hela; conditions: Homo sapiens, 48 h, mean of three independent experiments, read-out: IC50 (μM) Mean ± SD, Hela
Description: as §1, §2

[4] = system: SMMC-7721 (liver carcinoma) cell line; assay: MTT cytotoxicity assay, SMMC-7721; conditions: Homo sapiens, 48 h, mean of three independent experiments, read-out: IC50 (μM) Mean ± SD, SMMC-7721
Description: as §1, §2

[5] = system: MCF-7 (breast carcinoma) cell line; assay: MTT cytotoxicity assay, MCF-7; conditions: Homo sapiens, MCF7, 48 h, mean of three independent experiments, read-out: IC50 (μM) Mean ± SD, MCF-7
Description: as §1, §2

[6] = system: MRC5 (normal lung cell) cell line; assay: MTT cytotoxicity assay, MRC5; conditions: Homo sapiens, 48 h
Description: [The procedure below names another cell line; the source lists this cell line under the same test.] as §2

SMILES	IC50 [1] [µM]	IC50 [2] [µM]	IC50 [3] [µM]	IC50 [4] [µM]	IC50 [5] [µM]	IC50 [6] [µM]
COC(=O)c1cc2c3ccccc3n(Cc3ccccc3)c2cn1 [Compound 4A]	> 80	> 80	> 80	> 80	> 80	35.6 ± 0.3
COC(=O)c1cc2c3ccccc3n(Cc3ccc(C)cc3)c2cn1 [Compound 4C]	28.06 ± 0.13	47.98 ± 0.09	42.6 ± 0.98	> 80	> 80	35.35 ± 0.3
O=c1[nH]cc(F)c(=O)[nH]1 [Compound 5-FU, 5-fluorouracil, reference compound]	15.39 ± 0.09	> 80	> 80	52.3 ± 2.06	57.7 ± 1.39	16.3 ± 0.3
O=C(OCCCOC(=O)c1cc2c3ccccc3n(Cc3ccccc3)c2cn1)c1cc2c3ccccc3n(Cc3ccccc3)c2cn1 [Compound 6a]	24.27 ± 0.12	17.76 ± 0.17	17.89 ± 0.03	25.7 ± 0.32	73.5 ± 0.88	32.57 ± 0.1
O=C(OCCCCOC(=O)c1cc2c3ccccc3n(Cc3ccccc3)c2cn1)c1cc2c3ccccc3n(Cc3ccccc3)c2cn1 [Compound 6b]	12.26 ± 0.04	15.5 ± 0.32	18.2 ± 0.52	66.53 ± 0.31	70.9 ± 2.33	64.44 ± 0.09
O=C(OCCCCCOC(=O)c1cc2c3ccccc3n(Cc3ccccc3)c2cn1)c1cc2c3ccccc3n(Cc3ccccc3)c2cn1 [Compound 6c]	17.65 ± 0.09	18.72 ± 0.07	18.15 ± 0.03	55.15 ± 0.03	76.9 ± 3.01	39.34 ± 0.11
O=C(OCCCCCCOC(=O)c1cc2c3ccccc3n(Cc3ccccc3)c2cn1)c1cc2c3ccccc3n(Cc3ccccc3)c2cn1 [Compound 6d]	40.03 ± 0.15	58.4 ± 0.72	32.36 ± 0.02	33.49 ± 0.01	75.5 ± 2.32	66.99 ± 0.1
O=C(OCCCCCCCCOC(=O)c1cc2c3ccccc3n(Cc3ccccc3)c2cn1)c1cc2c3ccccc3n(Cc3ccccc3)c2cn1 [Compound 6e]	50.3 ± 3.15	69.97 ± 0.13	54 ± 0.56	75.4 ± 0.89	> 80	> 100
Cc1ccccc1Cn1c2ccccc2c2cc(C(=O)OCCCOC(=O)c3cc4c5ccccc5n(Cc5ccccc5C)c4cn3)ncc21 [Compound 6g]	18.3 ± 0.28	29.4 ± 1.03	17.99 ± 0.15	73.5 ± 8.06	53.1 ± 2.28	32.61 ± 0.1
Cc1ccccc1Cn1c2ccccc2c2cc(C(=O)OCCCCOC(=O)c3cc4c5ccccc5n(Cc5ccccc5C)c4cn3)ncc21 [Compound 6h]	8.09 ± 0.25	17.8 ± 0.93	45.8 ± 0.55	24.7 ± 0.5	76.7 ± 5	50.78 ± 0.09
Cc1ccccc1Cn1c2ccccc2c2cc(C(=O)OCCCCCCOC(=O)c3cc4c5ccccc5n(Cc5ccccc5C)c4cn3)ncc21 [Compound 6j]	12.18 ± 0.06	26.3 ± 1.03	18.1 ± 1.03	16.68 ± 0.03	64.5 ± 3.31	41 ± 0.07
Cc1ccccc1Cn1c2ccccc2c2cc(C(=O)OCCCCCCCCOC(=O)c3cc4c5ccccc5n(Cc5ccccc5C)c4cn3)ncc21 [Compound 6k]	37.4 ± 2.08	35 ± 2.09	36.7 ± 2.02	33.9 ± 0.52	44.9 ± 2.99	65.85 ± 0.07
Cc1ccc(Cn2c3ccccc3c3cc(C(=O)OCCCOC(=O)c4cc5c6ccccc6n(Cc6ccc(C)cc6)c5cn4)ncc32)cc1 [Compound 6m]	19.84 ± 0.04	18.4 ± 0.31	17.95 ± 0.02	33.32 ± 0.03	28.43 ± 0.28	49.05 ± 0.12
Cc1ccc(Cn2c3ccccc3c3cc(C(=O)OCCCCOC(=O)c4cc5c6ccccc6n(Cc6ccc(C)cc6)c5cn4)ncc32)cc1 [Compound 6n]	13.4 ± 0.35	37.8 ± 1.02	28 ± 0.99	42.7 ± 2.18	49.1 ± 2.23	26.39 ± 0.01
Cc1ccc(Cn2c3ccccc3c3cc(C(=O)OCCCCCOC(=O)c4cc5c6ccccc6n(Cc6ccc(C)cc6)c5cn4)ncc32)cc1 [Compound 6o]	11.2 ± 0.61	17.18 ± 0.03	18.8 ± 0.46	36.62 ± 0.12	49.4 ± 1.65	31.28 ± 0.07
Cc1ccc(Cn2c3ccccc3c3cc(C(=O)OCCCCCCOC(=O)c4cc5c6ccccc6n(Cc6ccc(C)cc6)c5cn4)ncc32)cc1 [Compound 6p]	19.28 ± 0.02	17.8 ± 0.22	15.7 ± 0.33	26.8 ± 0.51	55 ± 2.22	47.6 ± 0.02
Cc1ccc(Cn2c3ccccc3c3cc(C(=O)OCCCCCCCCOC(=O)c4cc5c6ccccc6n(Cc6ccc(C)cc6)c5cn4)ncc32)cc1 [Compound 6q]	23.65 ± 0.05	35.8 ± 0.82	45.2 ± 1.66	29.8 ± 0.93	43.1 ± 2.01	42.06 ± 0.09
O=C(OCCCOC(=O)c1cc2c3ccccc3n(Cc3ccccc3F)c2cn1)c1cc2c3ccccc3n(Cc3ccccc3F)c2cn1 [Compound 6s]	6.12 ± 0.03	8.06 ± 0.08	13.77 ± 0.11	14.71 ± 0.08	25.2 ± 1.12	22.82 ± 0.02
O=C(OCCCCOC(=O)c1cc2c3ccccc3n(Cc3ccccc3F)c2cn1)c1cc2c3ccccc3n(Cc3ccccc3F)c2cn1 [Compound 6t]	12.4 ± 0.59	9.01 ± 0.19	15.2 ± 0.32	18.26 ± 0.18	25.7 ± 1.21	> 100
O=C(OCCCCCCOC(=O)c1cc2c3ccccc3n(Cc3ccccc3F)c2cn1)c1cc2c3ccccc3n(Cc3ccccc3F)c2cn1 [Compound 6v]	7.95 ± 0.06	8.6 ± 0.13	22.9 ± 1.36	24.65 ± 0.06	42.4 ± 2.08	67.75 ± 0.11
O=C(OCCCCCCCCOC(=O)c1cc2c3ccccc3n(Cc3ccccc3F)c2cn1)c1cc2c3ccccc3n(Cc3ccccc3F)c2cn1 [Compound 6w]	16.5 ± 0.33	29.98 ± 0.07	31.3 ± 1.88	44.57 ± 0.02	76.3 ± 3.36	60.78 ± 0.16
